Test results reported in patent publication US9447069B2, “ROR modulators and their uses” (INNOV17 LLC, priority 2012, dated 2016).

Columns and labels:
IL-21 [1] = assay: Real-Time qRT-PCR gene expression in TH17 cells (IL-21); type: cell-based, human; parameters: key: A: No change in gene expression observed relative to DMSO treated Th17 cells; B: Decreased gene expression observed relative to DMSO treated Th17 cells; C: Increased gene expression observed relative to DMSO treated Th17 cells; settings: normalized to six reference genes
Description: (§1) Peripheral blood mononuclear cells (PBMCs) were sourced from freshly prepared leukocyte enriched plasma (buffy coat) from healthy volunteers from which PBMCs were isolated by density gradient centrifugation using Ficoll-Paque™ PLUS (GE Healthcare). Naïve CD4+ T cells were isolated using the Naïve CD4+ T cell Isolation Kit II (Miltenyi Biotec) as per manufacturer's instructions. CD4+ T cells were plated at 5×10^4 cells/well in 96 well plates pre-coated with immobilized human (h)-αCD3 antibody (eBioscience) then differentiated to TH17 cells using h-αCD28, h-αIFN-γ, h-αIL-4, h-IL-6, h-IL-23, h-IL-1β, h-TGF-β1 (eBioscience) and maintained in a cell culture incubator at 37° C. with 5% CO2 in TexMACS Medium (Miltenyi Biotec) supplemented with 1% Penicillin/Streptomycin (Lonza) over 5 days.
(§2) RNA was isolated from TH17 cells and cDNA was synthesized using the Verso cDNA kit (Thermo Scientific) as per manufacturer's instructions. IL-17A, IL-17F, IL-21, IL-22, G-CSF, IL-23R and FOXP3 gene expression were determined for compound treated and untreated TH17 cell samples using Solaris qPCR Gene expression assays (Thermo Scientific) with an iCycler iQ Real-Time PCR Detection System (Bio-Rad). Individual gene expression was normalized to a panel of six reference genes (ACTB, TBP, HPRT1, PGK1, TFRC and PPIA) (Thermo Scientific) and analyzed by REST 2009 (Qiagen) in accordance to MIQE guidelines (Bustin et al. (2009) Clin. Chem, 55:611-622). The effects of compounds on TH17 cytokine gene expression are presented as fold change in mRNA levels of compound treated TH17 cells relative to DMSO treated cells in the table below.

IL-17AF = assay: TH17 cytokine inhibition measured by ELISA (IL-17AF); type: cell-based; settings: 120 h; human TH17 cells, 5 days differentiation, ELISA of supernatants, 0.1% DMSO
Description: as §1
(§3) Human CD4+ T cells were differentiated to TH17 cells as described in the presence or absence of various concentrations of compounds in a final concentration of 0.1% DMSO in TexMACS medium. Supernatants were collected and stored at −20° C. until they were to be assayed for IL-17A, IL-17F, IL-17AF, IL-21 and/or IL-22 levels as determined by Ready-Set-Go ELISA kits (eBioscience) as per manufacturer's instructions. Endpoint absorbance was read at 450 nm and 570 nm according to manufacturer's instructions (eBioscience) using a microplate reader (Perkin Elmer). The percentage of cytokine inhibition was calculated with reference to DMSO treated cells and the IC50s were determined by GraphPad Prism software and presented in the table below.

IL-21 [2] = assay: TH17 cytokine inhibition measured by ELISA (IL-21); type: cell-based; settings: 120 h; human TH17 cells, 5 days differentiation, ELISA of supernatants, 0.1% DMSO
Description: as §1, §3

IL-17F = assay: Real-Time qRT-PCR gene expression in TH17 cells (IL-17F); type: cell-based, human; parameters: key: A: No change in gene expression observed relative to DMSO treated Th17 cells; B: Decreased gene expression observed relative to DMSO treated Th17 cells; C: Increased gene expression observed relative to DMSO treated Th17 cells; settings: normalized to six reference genes
Description: as §1, §2

SMILES | Fold change in mRNA levels of compound treated TH17 cells relative to DMSO treated cells, IL-21 (IL-21 [1]) | IC50 (IL-17AF) [µM] | IC50 (IL-21 [2]) [µM] | Fold change in mRNA levels of compound treated TH17 cells relative to DMSO treated cells, IL-17F (IL-17F)
Cc1cc(-c2ccc3c(c2)CCCN3Cc2ccc(C(O)(C(F)(F)F)C(F)(F)F)cc2)[nH]n1 [Example 1, 1,1,1,3,3,3-hexafluoro-2-(4-((6-(3-methyl-1H-pyrazol-5-yl)-3,4-dihydroquinolin-1(2H)-yl)methyl)phenyl)propan-2-ol] | B | < 10 | < 10 | B
OC(c1ccc(CN2CCCc3cc(-c4cn[nH]c4)ccc32)cc1)(C(F)(F)F)C(F)(F)F [Example 2, 2-(4-((6-(1H-pyrazol-4-yl)-3,4-dihydroquinolin-1(2H)-yl)methyl)phenyl)-1,1,1,3,3,3-hexafluoropropan-2-ol] | B | < 10 | < 10 | B
Cc1n[nH]c(-c2ccc3c(c2)CCCN3Cc2ccc(C(O)(C(F)(F)F)C(F)(F)F)cc2)n1 [Example 3, 1,1,1,3,3,3-hexafluoro-2-(4-((6-(3-methyl-1H-1,2,4-triazol-5-yl)-3,4-dihydroquinolin-1(2H)-yl)methyl)phenyl)propan-2-ol] | B | < 10 | < 10 | B
Cc1cc(-c2ccc3c(c2)CCC(=O)N3Cc2ccc(C(O)(C(F)(F)F)C(F)(F)F)cc2)[nH]n1 [Example 4, 1-(4-(1,1,1,3,3,3-hexafluoro-2-hydroxypropan-2-yl)benzyl)-6-(3-methyl-1H-pyrazol-5-yl)-3,4-dihydroquinolin-2(1H)-one] | B |  |  | B
O=C1CCc2cc(-c3cn[nH]c3)ccc2N1Cc1ccc(C(O)(C(F)(F)F)C(F)(F)F)cc1 [Example 5, 1-(4-(1,1,1,3,3,3-hexafluoro-2-hydroxypropan-2-yl)benzyl)-6-(1H-pyrazol-4-yl)-3,4-dihydroquinolin-2(1H)-one] | A | < 10 | < 10 | A
Cc1n[nH]c(-c2ccc3c(c2)CCC(=O)N3Cc2ccc(C(O)(C(F)(F)F)C(F)(F)F)cc2)n1 [Example 6, 1-(4-(1,1,1,3,3,3-hexafluoro-2-hydroxypropan-2-yl)benzyl)-6-(3-methyl-1H-1,2,4-triazol-5-yl)-3,4-dihydroquinolin-2(1H)-one] | A |  |  | B
